Measured values taken from article PMC10800876, “Evaluation of proline-rich antimicrobial peptides as potential lead structures for novel antimycotics against Cryptococcus neoformans” (Frontiers in Microbiology, 2024).
Where two headings read alike, the source gives them in different places.

Key:
[1] = test system: C. neoformans strains 1841, H99, and KN99α; test: Broth microdilution assay (MIC); format: cell-based, Cryptococcus neoformans
C. neoformans 1841 [2] = test: Antifungal activity assay (CFU on SAB agar); format: cell-based, Cryptococcus neoformans; conditions: treatment 3 h, 30 °C, mean ± SD, n = 4; for cell count C. neoformans 1841, 24 h: CFU counted after 24 h; for cell count C. neoformans 1841, 48 h: CFU counted after 48 h
C. neoformans H99 = test: Antifungal activity assay (CFU on SAB agar); format: cell-based, Cryptococcus neoformans; conditions: treatment 3 h, 30 °C, mean ± SD, n = 4; for cell count C. neoformans H99, 24 h: CFU counted after 24 h; for cell count C. neoformans H99, 48 h: CFU counted after 48 h
C. neoformans KN99α = test: Antifungal activity assay (CFU on SAB agar); format: cell-based, Cryptococcus neoformans; conditions: treatment 3 h, 30 °C, mean ± SD, n = 4; for cell count C. neoformans KN99α, 24 h: CFU counted after 24 h; for cell count C. neoformans KN99α, 48 h: CFU counted after 48 h
[3] = test system: C. neoformans 1841 (serotype D); test: microbe, parasite or virus in culture; conditions: Cryptococcus neoformans
[4] = test system: C. neoformans H99 (serotype A); test: microbe, parasite or virus in culture; conditions: Cryptococcus neoformans
[5] = test system: C. neoformans KN99α (serotype A, mating type MATα); test: microbe, parasite or virus in culture; conditions: Cryptococcus neoformans
C. neoformans 1841 [6] = test: Time-kill assay; format: cell-based, Cryptococcus neoformans; conditions: 2.5 μmol/L, 30°C, up to 24 h
Procedure: The kinetic effects of the antifungal activity were determined by diluting overnight cultures to 5 × 10^4 CFU/mL with 50% SAB in phosphate buffer. Aqueous peptide solutions (20 μL) were added to the cell suspension (80 μL) to give a final peptide concentration of 2.5 μmol/L. Samples were incubated at 30°C on an orbital shaker (750 rpm, Titramax 1,000, Heidolph Instruments GmbH & Co. KG) for 24 h. Before incubation (0 min) and after 45 min, 90 min, 3 h, 6 h, and 24 h incubation, aliquots (10 μL) of samples were taken and diluted with phosphate buffer (10 mmol/L, pH 7.5) to observe countable cell colonies. Aliquots (100 μL) of the diluted cell suspensions were plated on SAB agar plates. Plates were incubated at 30°C and colonies were counted after 24 h.

[7] = test system: C. neoformans strains 1841, H99, and KN99α; test: Antifungal activity assay (CFU); format: cell-based, Cryptococcus neoformans; conditions: only small colonies appearing after more than 24 h
[8] = test system: C. neoformans 1841 (serotype D); conditions: broth microdilution, 50% SAB in phosphate buffer pH 7.5, 5 × 10^4 CFU/mL, 30°C
[9] = test system: C. neoformans H99 (serotype A); conditions: broth microdilution, 50% SAB in phosphate buffer, 30°C, n = 6
[10] = test system: C. neoformans KN99α (serotype A, mating type MATα); conditions: broth microdilution, 50% SAB in phosphate buffer, 30°C, n = 6
[11] = Cryptococcus neoformans, read-out: MIC
[12] = 24 h, pH 7.5, read-out: MIC (μmol/L) 1841 24 h
[13] = 24 h, read-out: MIC (mg/L) 1841 24 h
[14] = 48 h, pH 7.5, read-out: MIC (μmol/L) 1841 48 h
[15] = 48 h, read-out: MIC (mg/L) 1841 48 h
[16] = 24 h, read-out: MIC (mg/L) H99 24 h
[17] = 24 h, read-out: MIC (μmol/L) H99 24 h
[18] = 48 h, read-out: MIC (mg/L) H99 48 h
[19] = 48 h, read-out: MIC (μmol/L) H99 48 h
[20] = 24 h, read-out: MIC (mg/L) KN99α 24 h
[21] = 24 h, read-out: MIC (μmol/L) KN99α 24 h
[22] = 48 h, read-out: MIC (mg/L) KN99α 48 h
[23] = 48 h, read-out: MIC (μmol/L) KN99α 48 h

Row | Compound | MIC [1] [µg/mL] | MIC [1, 11] [µM] | cell count C. neoformans 1841, 24 h (C. neoformans 1841 [2]; 0.25 µmol/L) | cell count C. neoformans 1841, 48 h (C. neoformans 1841 [2]; 0.25 µmol/L) | cell count C. neoformans 1841, 24 h (C. neoformans 1841 [2]; 2.5 µmol/L) | cell count C. neoformans 1841, 48 h (C. neoformans 1841 [2]; 2.5 µmol/L) | cell count C. neoformans 1841, 24 h (C. neoformans 1841 [2]; 25 µmol/L) | cell count C. neoformans 1841, 48 h (C. neoformans 1841 [2]; 25 µmol/L) | cell count C. neoformans H99, 24 h (C. neoformans H99; 0.25 µmol/L) | cell count C. neoformans H99, 48 h (C. neoformans H99; 0.25 µmol/L) | cell count C. neoformans H99, 24 h (C. neoformans H99; 2.5 µmol/L) | cell count C. neoformans H99, 48 h (C. neoformans H99; 2.5 µmol/L) | cell count C. neoformans H99, 24 h (C. neoformans H99; 25 µmol/L) | cell count C. neoformans H99, 48 h (C. neoformans H99; 25 µmol/L) | cell count C. neoformans KN99α, 24 h (C. neoformans KN99α; 0.25 µmol/L) | cell count C. neoformans KN99α, 48 h (C. neoformans KN99α; 0.25 µmol/L) | cell count C. neoformans KN99α, 24 h (C. neoformans KN99α; 2.5 µmol/L) | cell count C. neoformans KN99α, 48 h (C. neoformans KN99α; 2.5 µmol/L) | cell count C. neoformans KN99α, 24 h (C. neoformans KN99α; 25 µmol/L) | cell count C. neoformans KN99α, 48 h (C. neoformans KN99α; 25 µmol/L) | also measured
1 | OC(Cn1cncn1)(Cn1cncn1)c1ccc(F)cc1F [Fluconazole, fluconazole, reference compound] | 4 to 32 | 13 to 105 | 2.5 ± 0.0 x 10^4 CFU/mL | 2.5 ± 0.0 x 10^4 CFU/mL | 2.7 ± 0.2 x 10^4 CFU/mL | 2.7 ± 0.2 x 10^4 CFU/mL | 1.9 ± 0.3 x 10^4 CFU/mL | 1.9 ± 0.3 x 10^4 CFU/mL | 3.4 ± 0.5 x 10^4 CFU/mL | 3.8 ± 0.3 x 10^4 CFU/mL | 3.4 ± 0.4 x 10^4 CFU/mL | 3.5 ± 0.4 x 10^4 CFU/mL | 3.3 ± 0.8 x 10^4 CFU/mL | 3.5 ± 0.8 x 10^4 CFU/mL | 2.9 ± 0.5 x 10^4 CFU/mL | 3.0 ± 0.6 x 10^4 CFU/mL | 3.3 ± 0.6 x 10^4 CFU/mL | 3.4 ± 0.7 x 10^4 CFU/mL | 3.2 ± 0.5 x 10^4 CFU/mL | 3.3 ± 0.5 x 10^4 CFU/mL | MIC [3, 12]: 105 µmol/L; MIC [3, 13]: 32 mg/L; MIC [3, 14]: 105 µmol/L; MIC [3, 15]: 32 mg/L; MIC [4, 16]: 16 mg/L; MIC [4, 17]: 53 µmol/L; MIC [4, 18]: 16 to 32 mg/L; MIC [4, 19]: 53 to 105 µmol/L; MIC [5, 20]: 4 mg/L; MIC [5, 21]: 13 µmol/L; MIC [5, 22]: 8 mg/L; MIC [5, 23]: 26 µmol/L
2 | gu-OIOIORPVYOPRPRPPHPRL-OH [Api795] | – | – | 1.4 ± 0.6 x 10^4 CFU/mL | 1.4 ± 0.6 x 10^4 CFU/mL | 2.1 ± 0.1 x 10^4 CFU/mL | 2.1 ± 0.1 x 10^4 CFU/mL | 0.2 ± 0.0 x 10^4 CFU/mL | 0.2 ± 0.0 x 10^4 CFU/mL | 3.3 ± 0.3 x 10^4 CFU/mL | 3.6 ± 0.6 x 10^4 CFU/mL | 1.4 ± 0.4 x 10^4 CFU/mL | 2.0 ± 0.2 x 10^4 CFU/mL | 0.1 ± 0.0 x 10^4 CFU/mL | 0.5 ± 0.2 x 10^4 CFU/mL | 2.9 ± 0.3 x 10^4 CFU/mL | 2.9 ± 0.4 x 10^4 CFU/mL | 1.7 ± 0.7 x 10^4 CFU/mL | 1.9 ± 0.8 x 10^4 CFU/mL | 0.1 ± 0.1 x 10^4 CFU/mL | 0.4 ± 0.1 x 10^4 CFU/mL | time-dependent antifungal effect (C. neoformans 1841 [6]): delayed antifungal effect; colony formation on agar [7]: delayed colony formation; MIC (μmol/L) 1841 24 h ([8]; read after 24 h, mean of six replicates (n = 6)): 1.6 µmol/L; MIC (μmol/L) 1841 48 h ([8]; read after 48 h, n = 6): 3.2 µmol/L; MIC (μmol/L) H99 24 h ([9]; read after 24 h): 3.2 µmol/L; MIC (μmol/L) H99 48 h ([9]; read after 48 h): 3.2 µmol/L; MIC (mg/L) KN99α 24 h ([10]; read after 24 h): 4 to 8 mg/L; MIC (μmol/L) KN99α 24 h ([10]; read after 24 h): 1.6 to 3.2 µmol/L; MIC (μmol/L) KN99α 48 h ([10]; read after 48 h): 3.2 µmol/L
3 | Nc1[nH]c(=O)ncc1F [Flucytosine, flucytosine, reference compound] | ≥ 64 | ≥ 496 | 2.2 ± 0.1 x 10^4 CFU/mL | 2.2 ± 0.1 x 10^4 CFU/mL | 2.4 ± 0.2 x 10^4 CFU/mL | 2.4 ± 0.2 x 10^4 CFU/mL | 2.4 ± 0.0 x 10^4 CFU/mL | 2.4 ± 0.0 x 10^4 CFU/mL | 3.1 ± 0.8 x 10^4 CFU/mL | 3.2 ± 0.7 x 10^4 CFU/mL | 3.7 ± 0.4 x 10^4 CFU/mL | 3.9 ± 0.3 x 10^4 CFU/mL | 3.1 ± 0.5 x 10^4 CFU/mL | 3.3 ± 0.6 x 10^4 CFU/mL | 3.4 ± 0.7 x 10^4 CFU/mL | 3.4 ± 0.8 x 10^4 CFU/mL | 3.1 ± 0.5 x 10^4 CFU/mL | 3.2 ± 0.5 x 10^4 CFU/mL | 3.3 ± 0.5 x 10^4 CFU/mL | 3.3 ± 0.5 x 10^4 CFU/mL | MIC [3, 12]: 496 µmol/L; MIC [3, 13]: 64 mg/L; MIC [3, 14]: 992 µmol/L; MIC [3, 15]: 128 mg/L; MIC [4, 16]: 64 mg/L; MIC [4, 17]: 496 µmol/L; MIC [4, 18]: > 128 mg/L; MIC [4, 19]: > 992 µmol/L; MIC [5, 20]: 128 mg/L; MIC [5, 21]: 992 µmol/L; MIC [5, 22]: > 128 mg/L; MIC [5, 23]: > 992 µmol/L
